Data as given in patent US20240043404A1 (AbbVie Inc., priority 2009, published 2024).

Test system: RS4;11 cells
Assay: RS4;11 cell viability assay (CellTiter Glo);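 also: acute lymphoblastic leukemia line RS4,11, EC50 derived from percentage of viable cells after treatment relative to untreated controls, cell killing taken as a measure of Bcl-2 inhibition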
Assay type: cell-based, human
Details: Homo sapiens, RS4-11, 48 h, 50,000 cells per well, 10% human serum, 48 hours; read-out: RS4; 11 EC50 Values
Protocol: The acute lymphoblastic leukemia (ALL) cell line RS4;11 was used as the primary human cell line to assess the cellular activity of Bcl-2 selective agents in vitro and their efficacy in vivo.
Cell cytotoxicity EC50 values were assessed using CellTiter Glo (Promega) according to the manufacturer's recommendations. The EC50 values were determined as a percentage of viable cells following treatment compared to the untreated control cells.

Row | Compound | EC50 [µM]
1 | CC1(C)CCC(CN2CCN(c3ccc(C(=O)NS(=O)(=O)c4cnc(OCC5CCOCC5)c(C(N)=O)c4)c(Oc4cnc5[nH]ccc5c4)c3)CC2)=C(c2ccc(Cl)cc2)C1 [Example 46, 5-({[4-(4-{[2-(4-chlorophenyl)-4,4-dimethylcyclohex-1-en-1-yl]methyl}piperazin-1-yl)-2-(1H-pyrrolo[2,3-b]pyridin-5-yloxy)benzoyl]amino}sulfonyl)-2-(tetrahydro-2H-pyran-4-ylmethoxy)nicotinamide] | > 5
2 | CC1(C)CCC(CN2CCN(c3ccc(C(=O)NS(=O)(=O)c4ccc(NCc5cccc(OC(F)F)c5)c([N+](=O)[O-])c4)c(Oc4cnc5[nH]ccc5c4)c3)CC2)=C(c2ccc(Cl)cc2)C1 [Example 187, 4-(4-{[2-(4-chlorophenyl)-4,4-dimethylcyclohex-1-en-1-yl]methyl}piperazin-1-yl)-N-[(4-{[3-(difluoromethoxy)benzyl]amino}-3-nitrophenyl)sulfonyl]-2-(1H-pyrrolo[2,3-b]pyridin-5-yloxy)benzamide] | 0.215
3 | CC1(C)CCC(CN2CCN(c3ccc(C(=O)NS(=O)(=O)c4cc(F)c(NCC5CCOCC5)c(Cl)c4)c(Oc4cnc5[nH]ccc5c4)c3)CC2)=C(c2ccc(Cl)cc2)C1 [Example 86, N-({3-chloro-5-fluoro-4-[(tetrahydro-2H-pyran-4-ylmethyl)amino]phenyl}sulfonyl)-4-(4-{[2-(4-chlorophenyl)-4,4-dimethylcyclohex-1-en-1-yl]methyl}piperazin-1-yl)-2-(1H-pyrrolo[2,3-b]pyridin-5-yloxy)benzamide] | 1.02
4 | CC1(C)CCC(CN2CCN(c3ccc(C(=O)NS(=O)(=O)c4ccc(O[C@H]5CC[C@H](N6CCOCC6)CC5)c([N+](=O)[O-])c4)c(Oc4cnc5[nH]ccc5c4)c3)CC2)=C(c2ccc(Cl)cc2)C1 [Example 60, Trans-4-(4-{[2-(4-chlorophenyl)-4,4-dimethylcyclohex-1-en-1-yl]methyl}piperazin-1-yl)-N-({4-[(4-morpholin-4-ylcyclohexyl)oxy]-3-nitrophenyl}sulfonyl)-2-(1H-pyrrolo[2,3-b]pyridin-5-yloxy)benzamide] | 0.0595
5 | CC1(C)CCC(CN2CCN(c3ccc(C(=O)NS(=O)(=O)c4cnc(OC[C@@H]5CCN(CC(F)F)C5)c(Cl)c4)c(Oc4cnc5[nH]ccc5c4)c3)CC2)=C(c2ccc(Cl)cc2)C1 [Example 281, N-[(5-chloro-6-{[(3R)-1-(2,2-difluoroethyl)pyrrolidin-3-yl]methoxy}pyridin-3-yl)sulfonyl]-4-(4-{[2-(4-chlorophenyl)-4,4-dimethylcyclohex-1-en-1-yl]methyl}piperazin-1-yl)-2-(1H-pyrrolo[2,3-b]pyridin-5-yloxy)benzamide] | 0.654
6 | CC1(C)CCC(CN2CCN(c3ccc(C(=O)NS(=O)(=O)c4ccc(OCC5(F)CCOCC5)c(C(F)(F)F)c4)c(Oc4cnc5[nH]ccc5c4)c3)CC2)=C(c2ccc(Cl)cc2)C1 [Example 307, 4-(4-{[2-(4-chlorophenyl)-4,4-dimethylcyclohex-1-en-1-yl]methyl}piperazin-1-yl)-N-({4-[(4-fluorotetrahydro-2H-pyran-4-yl)methoxy]-3-(trifluoromethyl)phenyl}sulfonyl)-2-(1H-pyrrolo[2,3-b]pyridin-5-yloxy)benzamide] | 0.128
7 | CC1(C)CCC(CN2CCN(c3ccc(C(=O)NS(=O)(=O)c4ccc(NC5CCN(C(CF)CF)CC5)c([N+](=O)[O-])c4)c(Oc4cnc5[nH]ccc5c4)c3)CC2)=C(c2ccc(Cl)cc2)C1 [Example 95, 4-(4-{[2-(4-chlorophenyl)-4,4-dimethylcyclohex-1-en-1-yl]methyl}piperazin-1-yl)-N-{[4-({1-[2-fluoro-1-(fluoromethyl)ethyl]piperidin-4-yl}amino)-3-nitrophenyl]sulfonyl}-2-(1H-pyrrolo[2,3-b]pyridin-5-yloxy)benzamide] | 0.0295
8 | CC(C)N1CCC2(CCC(c3ccc(Cl)cc3)=C(CN3CCN(c4ccc(C(=O)NS(=O)(=O)c5cnc(OCC6CCOCC6)c(Cl)c5)c(Oc5cnc6[nH]ccc6c5)c4)CC3)C2)CC1 [Example 268, 4-(4-{[9-(4-chlorophenyl)-3-isopropyl-3-azaspiro[5.5]undec-8-en-8-yl]methyl}piperazin-1-yl)-N-{[5-chloro-6-(tetrahydro-2H-pyran-4-ylmethoxy)pyridin-3-yl]sulfonyl}-2-(1H-pyrrolo[2,3-b]pyridin-5-yloxy)benzamide] | 0.0488
9 | CC1(C)CCC(CN2CCN(c3ccc(C(=O)NS(=O)(=O)c4ccc(NCCCN(Cc5cncs5)C5CC5)c([N+](=O)[O-])c4)c(Oc4cnc5[nH]ccc5c4)c3)CC2)=C(c2ccc(Cl)cc2)C1 [Example 304, 4-(4-{[2-(4-chlorophenyl)-4,4-dimethylcyclohex-1-en-1-yl]methyl}piperazin-1-yl)-N-{[4-({3-[cyclopropyl(1,3-thiazol-5-ylmethyl)amino]propyl}amino)-3-nitrophenyl]sulfonyl}-2-(1H-pyrrolo[2,3-b]pyridin-5-yloxy)benzamide] | 0.298

Now those with a lower EC50, led by results:

Row | EC50 [µM] | Compound
10 | 0.0265 | CC(=O)N1CC[C@@H](Nc2ccc(S(=O)(=O)NC(=O)c3ccc(N4CCN(CC5=C(c6ccc(Cl)cc6)CC(C)(C)CC5)CC4)cc3Oc3cnc4[nH]ccc4c3)cc2[N+](=O)[O-])C1 [Example 154, N-[(4-{[(3R)-1-acetylpyrrolidin-3-yl]amino}-3-nitrophenyl)sulfonyl]-4-(4-{[2-(4-chlorophenyl)-4,4-dimethylcyclohex-1-en-1-yl]methyl}piperazin-1-yl)-2-(1H-pyrrolo[2,3-b]pyridin-5-yloxy)benzamide]
11 | 0.0172 | CC(=O)N1CCC(CNc2ccc(S(=O)(=O)NC(=O)c3ccc(N4CCN(CC5=C(c6ccc(Cl)cc6)CC(C)(C)CC5)CC4)cc3Oc3cnc4[nH]ccc4c3)cc2[N+](=O)[O-])C1 (stereo not shown) [Example 153, N-[(4-{[(1-acetylpyrrolidin-3-yl)methyl]amino}-3-nitrophenyl)sulfonyl]-4-(4-{[2-(4-chlorophenyl)-4,4-dimethylcyclohex-1-en-1-yl]methyl}piperazin-1-yl)-2-(1H-pyrrolo[2,3-b]pyridin-5-yloxy)benzamide]
12 | 0.0118 | CC1(C)CCC(CN2CCN(c3ccc(C(=O)NS(=O)(=O)c4ccc(NCC5CN(CC(F)F)CCO5)c([N+](=O)[O-])c4)c(Oc4cnc5[nH]ccc5c4)c3)CC2)=C(c2ccc(Cl)cc2)C1 (stereo not shown) [Example 166, 4-(4-{[2-(4-chlorophenyl)-4,4-dimethylcyclohex-1-en-1-yl]methyl}piperazin-1-yl)-N-{[4-({[4-(2,2-difluoroethyl)morpholin-2-yl]methyl}amino)-3-nitrophenyl]sulfonyl}-2-(1H-pyrrolo[2,3-b]pyridin-5-yloxy)benzamide]
13 | 0.00751 | CC1(C)CC(c2ccc(Cl)cc2)=C(CN2CCN(c3ccc(C(=O)NS(=O)(=O)c4ccc(N[C@H]5CC[C@@H](N6CCOCC6)CC5)c([N+](=O)[O-])c4)c(Oc4cnc5[nH]ccc5c4)c3)CC2)CO1 [Example 63, Cis-4-(4-{[4-(4-chlorophenyl)-6,6-dimethyl-5,6-dihydro-2H-pyran-3-yl]methyl}piperazin-1-yl)-N-({4-[(4-morpholin-4-ylcyclohexyl)amino]-3-nitrophenyl}sulfonyl)-2-(1H-pyrrolo[2,3-b]pyridin-5-yloxy)benzamide]
